# Source: patent publication US11278548B2, “Methods and compositions for reducing side effects in chemotherapeutic treatments” (Galderma Research and Development, priority 2017, dated 2022)
# Entries after “also recorded” stand apart in the source; their conditions may differ.
# System: acneiform rash
smiles,measurement,setting,value
"Brc1c(NC2=NCCN2)ccc2nccnc12 [brimonidine, (5-bromo-quinoxalin-6-yl)-(4,5-dihydro-1H-imidazol-2-yl)-amine]",treated patients with a decrease in rash severity,"18 EGFRI-treated patients, CTCAE v4.0 grading, followed for 12 to 24 weeks, n=17, most also on antibiotics or corticosteroids",94%
same,adverse events to brimonidine,"18 EGFRI-treated patients, followed for 12 to 24 weeks",not reported; also recorded: no adverse events
same,acneiform rash outcome (in words),"EGFRI-treated patients, 83% also receiving systemic antibiotics, topical antibiotics or corticosteroids",improvement in acneiform rash in all patients
same,dose modification of anticancer therapies,majority of treated patients,did not require dose modification
